Read-outs that look alike come from different tables or passages of the source.
Legend:
[1] = target: EGFR Del19/T790M/C797S (Homo sapiens, UniProt P00533, C797S/DEL746-750/T790M); assay: Biochemical EGFR kinase inhibition assay (Lance Ultra TR-FRET), triple mutant del19/T790M/C797S
In short: (§1)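 In this biochemical assay, phosphorylation after a one-hour room-temperature reaction was detected with europium-labelled anti-phosphopeptide antibody at 2 nM final concentration.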

[2] = target: EGFR L858R/T790M/C797S (Homo sapiens, UniProt P00533, C797S/L858R/T790M); assay: Biochemical EGFR kinase inhibition assay (Lance Ultra TR-FRET), triple mutant L858R/T790M/C797S
In short: as §1

[3] = target: EGFR Del19/C797S (Homo sapiens, UniProt P00533, C797S/DEL746-750); assay: Biochemical EGFR kinase inhibition assay (Lance Ultra TR-FRET), double mutant del19/C797S
In short: as §1

[4] = target: EGFR L858R/C797S (Homo sapiens, UniProt P00533, C797S/L858R); assay: Biochemical EGFR kinase inhibition assay (Lance Ultra TR-FRET), double mutant L858R/C797S
Description: Biochemical EGFR kinase assays were conducted using Lance Ultra time-resolved fluorescence resonance energy transfer (TR-FRET) technology from Perkin-Elmer. Compounds of the invention were initially diluted to 20 mM in 100% DMSO for storage and made into kinase buffer solution to create a compound concentration ranging from 0.003 μM and 10 μM.
Each kinase reactions were incubated at room temperature for 1 hour and then stopped by the addition of 4 μL of stop solution (10 mM EDTA). The specific Europium-labeled-anti-phosphopeptide antibody (PerkinElmer, AD0069) diluted in LANCE detection buffer was then added to a final concentration of 2 nM. After 60 minutes incubation at room temperature the LANCE signal was measured on an EnVision Multilabel Reader (Perkin-Elmer). Excitation wavelength was set at 320 nm and emission monitored at 615 nm (donor) and 665 nm (acceptor). The IC50 values were determined using GraphPad prism software (GraphPad Software, Inc., San Diego, CA, USA).

[5] = target: EGFR wildtype (WT) (Homo sapiens, UniProt P00533); assay: Biochemical EGFR kinase inhibition assay (Lance Ultra TR-FRET), wildtype
In short: as §1

[6] = IC50 Del19/T790M/C797S (nM), 100 μM ATP
[7] = Km ATP, read-out: IC50 Del19/T790M/C797S (nM) Km ATP
[8] = IC50 L858R/T790M/C797S (nM), 100 μM ATP
[9] = IC50 Del19/C797S (nM), 100 μM ATP
[10] = Km ATP, read-out: IC50 Del19/C797S (nM) Km ATP
[11] = IC50 L858R/C797S (nM), 100 μM ATP
[12] = Km ATP, read-out: IC50 L858R/C797S (nM) Km ATP
[13] = Km ATP, read-out: IC50 WT (nM) Km ATP
[14] = Km ATP, read-out: IC50 L858R/T790M/C797S (nM) Km ATP

Chain of EGFR Del19/C797S (P00533 with tags, fused parts or gaps DEL746-750/C797S): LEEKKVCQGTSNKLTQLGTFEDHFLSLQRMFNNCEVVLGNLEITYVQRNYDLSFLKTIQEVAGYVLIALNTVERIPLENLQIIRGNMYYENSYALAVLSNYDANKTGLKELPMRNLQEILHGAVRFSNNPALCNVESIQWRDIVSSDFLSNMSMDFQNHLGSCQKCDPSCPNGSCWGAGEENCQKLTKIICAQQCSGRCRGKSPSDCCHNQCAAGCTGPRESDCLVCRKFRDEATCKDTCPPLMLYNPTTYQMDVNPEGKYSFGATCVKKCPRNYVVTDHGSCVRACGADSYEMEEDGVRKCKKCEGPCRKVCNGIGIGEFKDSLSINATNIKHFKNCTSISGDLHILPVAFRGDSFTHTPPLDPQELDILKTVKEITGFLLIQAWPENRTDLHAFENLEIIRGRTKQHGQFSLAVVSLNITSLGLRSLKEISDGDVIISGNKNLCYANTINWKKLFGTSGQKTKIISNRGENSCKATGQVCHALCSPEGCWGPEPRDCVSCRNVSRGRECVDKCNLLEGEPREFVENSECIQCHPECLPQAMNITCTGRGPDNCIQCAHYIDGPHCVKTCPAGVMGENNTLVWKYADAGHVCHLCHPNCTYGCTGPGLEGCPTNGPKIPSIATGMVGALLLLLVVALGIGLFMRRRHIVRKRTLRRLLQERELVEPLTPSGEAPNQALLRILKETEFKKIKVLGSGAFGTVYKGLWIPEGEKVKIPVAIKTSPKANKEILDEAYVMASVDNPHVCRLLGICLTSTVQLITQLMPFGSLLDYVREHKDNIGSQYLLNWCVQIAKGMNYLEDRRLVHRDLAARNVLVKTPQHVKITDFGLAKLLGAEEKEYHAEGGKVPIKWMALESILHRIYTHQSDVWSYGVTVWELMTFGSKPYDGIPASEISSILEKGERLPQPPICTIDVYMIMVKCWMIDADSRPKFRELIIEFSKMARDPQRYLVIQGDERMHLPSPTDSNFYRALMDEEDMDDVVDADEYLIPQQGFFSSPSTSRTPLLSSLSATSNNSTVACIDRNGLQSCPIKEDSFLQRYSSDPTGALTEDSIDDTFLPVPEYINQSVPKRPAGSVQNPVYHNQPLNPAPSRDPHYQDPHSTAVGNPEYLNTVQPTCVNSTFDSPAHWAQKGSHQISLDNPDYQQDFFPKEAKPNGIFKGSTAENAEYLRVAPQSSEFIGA
Chain of EGFR L858R/C797S (P00533 25-1210 C797S/L858R): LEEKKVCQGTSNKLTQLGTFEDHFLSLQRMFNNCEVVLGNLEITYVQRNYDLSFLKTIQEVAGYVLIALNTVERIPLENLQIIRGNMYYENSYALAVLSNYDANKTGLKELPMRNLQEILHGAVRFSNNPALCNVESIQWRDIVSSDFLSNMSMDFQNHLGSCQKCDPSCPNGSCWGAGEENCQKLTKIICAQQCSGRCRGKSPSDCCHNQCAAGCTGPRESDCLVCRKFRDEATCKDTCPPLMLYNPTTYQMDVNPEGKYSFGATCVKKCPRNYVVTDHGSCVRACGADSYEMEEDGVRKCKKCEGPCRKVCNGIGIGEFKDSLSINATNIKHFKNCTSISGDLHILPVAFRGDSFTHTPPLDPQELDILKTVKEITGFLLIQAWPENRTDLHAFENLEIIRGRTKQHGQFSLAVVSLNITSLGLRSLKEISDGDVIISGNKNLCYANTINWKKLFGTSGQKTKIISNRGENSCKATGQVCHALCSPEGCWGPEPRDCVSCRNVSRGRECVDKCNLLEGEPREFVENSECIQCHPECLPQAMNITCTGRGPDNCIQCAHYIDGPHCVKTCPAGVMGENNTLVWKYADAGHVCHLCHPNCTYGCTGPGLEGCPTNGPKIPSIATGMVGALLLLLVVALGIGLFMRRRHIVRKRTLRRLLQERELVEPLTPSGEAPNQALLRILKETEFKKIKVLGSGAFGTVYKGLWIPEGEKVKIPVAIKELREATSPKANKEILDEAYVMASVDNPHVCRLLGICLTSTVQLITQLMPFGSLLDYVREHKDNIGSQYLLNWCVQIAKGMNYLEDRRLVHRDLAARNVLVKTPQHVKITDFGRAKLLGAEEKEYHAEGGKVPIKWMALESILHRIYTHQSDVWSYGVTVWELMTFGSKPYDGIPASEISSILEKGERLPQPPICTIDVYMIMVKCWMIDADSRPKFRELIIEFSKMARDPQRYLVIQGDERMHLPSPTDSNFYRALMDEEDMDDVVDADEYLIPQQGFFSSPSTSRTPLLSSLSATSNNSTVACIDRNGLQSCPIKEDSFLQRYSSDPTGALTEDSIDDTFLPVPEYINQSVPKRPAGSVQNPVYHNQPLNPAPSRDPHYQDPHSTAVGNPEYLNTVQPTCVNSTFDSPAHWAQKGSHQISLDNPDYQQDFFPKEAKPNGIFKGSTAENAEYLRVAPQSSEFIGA
Chain of EGFR Del19/T790M/C797S (P00533 with tags, fused parts or gaps DEL746-750/T790M/C797S): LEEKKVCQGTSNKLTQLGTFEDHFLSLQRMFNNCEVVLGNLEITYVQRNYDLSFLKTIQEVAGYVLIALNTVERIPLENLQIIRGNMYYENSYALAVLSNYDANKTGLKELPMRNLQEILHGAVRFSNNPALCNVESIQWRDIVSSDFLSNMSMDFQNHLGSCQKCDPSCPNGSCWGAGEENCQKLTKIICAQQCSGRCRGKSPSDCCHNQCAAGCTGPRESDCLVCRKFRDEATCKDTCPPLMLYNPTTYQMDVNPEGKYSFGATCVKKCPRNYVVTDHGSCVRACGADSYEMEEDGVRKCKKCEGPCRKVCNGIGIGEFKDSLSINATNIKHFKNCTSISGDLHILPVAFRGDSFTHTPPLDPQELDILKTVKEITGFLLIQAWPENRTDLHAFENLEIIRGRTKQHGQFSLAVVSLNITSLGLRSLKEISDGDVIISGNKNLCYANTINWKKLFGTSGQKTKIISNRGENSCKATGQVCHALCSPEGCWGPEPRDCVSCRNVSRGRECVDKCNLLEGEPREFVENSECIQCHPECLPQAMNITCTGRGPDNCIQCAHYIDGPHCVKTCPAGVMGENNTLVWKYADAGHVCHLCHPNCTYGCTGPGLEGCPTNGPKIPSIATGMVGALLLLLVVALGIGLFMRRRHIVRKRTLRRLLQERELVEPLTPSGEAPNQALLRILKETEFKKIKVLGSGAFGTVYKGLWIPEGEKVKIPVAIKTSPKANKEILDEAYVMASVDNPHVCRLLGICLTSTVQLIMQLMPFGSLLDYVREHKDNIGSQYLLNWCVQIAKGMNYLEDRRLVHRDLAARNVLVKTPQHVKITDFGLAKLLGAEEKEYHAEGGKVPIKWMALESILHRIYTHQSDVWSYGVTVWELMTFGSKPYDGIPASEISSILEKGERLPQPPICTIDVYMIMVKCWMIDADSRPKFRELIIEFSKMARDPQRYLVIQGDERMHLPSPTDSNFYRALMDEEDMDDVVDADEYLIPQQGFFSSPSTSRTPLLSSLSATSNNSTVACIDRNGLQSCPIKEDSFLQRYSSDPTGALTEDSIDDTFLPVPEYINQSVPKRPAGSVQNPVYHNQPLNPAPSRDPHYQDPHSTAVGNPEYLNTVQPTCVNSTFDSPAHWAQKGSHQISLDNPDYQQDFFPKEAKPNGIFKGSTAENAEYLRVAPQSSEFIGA
Chain of EGFR wildtype (WT) (P00533 25-1210): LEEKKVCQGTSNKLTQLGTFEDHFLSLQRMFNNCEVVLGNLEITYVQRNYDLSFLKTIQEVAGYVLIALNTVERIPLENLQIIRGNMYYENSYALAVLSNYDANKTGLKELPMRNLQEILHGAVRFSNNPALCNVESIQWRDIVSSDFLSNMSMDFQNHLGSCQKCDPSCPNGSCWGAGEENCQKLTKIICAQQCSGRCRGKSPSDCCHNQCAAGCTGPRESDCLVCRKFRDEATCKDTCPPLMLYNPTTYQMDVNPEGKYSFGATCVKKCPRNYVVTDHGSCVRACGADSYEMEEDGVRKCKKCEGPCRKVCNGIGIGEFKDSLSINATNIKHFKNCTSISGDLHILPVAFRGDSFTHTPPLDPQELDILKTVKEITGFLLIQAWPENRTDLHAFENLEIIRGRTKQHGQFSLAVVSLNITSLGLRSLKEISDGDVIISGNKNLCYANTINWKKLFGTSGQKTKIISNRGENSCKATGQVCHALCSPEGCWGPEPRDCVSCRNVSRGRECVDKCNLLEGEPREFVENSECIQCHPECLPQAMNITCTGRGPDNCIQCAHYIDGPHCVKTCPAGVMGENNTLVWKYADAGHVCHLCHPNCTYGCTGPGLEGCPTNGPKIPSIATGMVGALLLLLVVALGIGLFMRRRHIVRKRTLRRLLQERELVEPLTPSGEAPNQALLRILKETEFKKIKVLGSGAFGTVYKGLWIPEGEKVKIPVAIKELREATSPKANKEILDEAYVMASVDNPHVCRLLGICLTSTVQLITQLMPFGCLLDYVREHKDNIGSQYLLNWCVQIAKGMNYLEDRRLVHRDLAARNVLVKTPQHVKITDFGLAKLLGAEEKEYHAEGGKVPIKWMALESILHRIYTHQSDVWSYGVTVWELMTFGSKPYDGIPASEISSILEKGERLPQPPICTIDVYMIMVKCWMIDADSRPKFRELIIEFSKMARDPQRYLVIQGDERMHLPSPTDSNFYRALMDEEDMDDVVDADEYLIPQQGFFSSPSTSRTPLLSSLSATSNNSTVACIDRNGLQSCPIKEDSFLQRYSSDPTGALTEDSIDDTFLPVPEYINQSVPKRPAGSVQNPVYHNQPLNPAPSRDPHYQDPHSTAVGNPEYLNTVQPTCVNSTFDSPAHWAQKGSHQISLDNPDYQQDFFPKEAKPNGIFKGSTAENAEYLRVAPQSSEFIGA

Row | Structure (SMILES) | IC50 [1, 6] [nM] | IC50 [1, 7] [nM] | IC50 [2, 8] [nM] | IC50 [3, 9] [nM] | IC50 [3, 10] [nM] | IC50 [4, 11] [nM] | IC50 [4, 12] [nM] | IC50 ([5]; IC50 WT (nM), 100 μM ATP) [nM] | IC50 [5, 13] [nM] | IC50 [2, 14] [nM]
1 | O=S(=O)(C1CC1)n1cc(-c2nccc(Nc3cc(N4CCC(CO)CC4)c(C#Cc4cnn(CCF)c4)cn3)n2)cn1 [Example 30, (1-(2-((2-(1-(Cyclopropylsulfonyl)-1H-pyrazol-4-yl)pyrimidin-4-yl)amino)-5-((1-(2-fluoroethyl)-1H-pyrazol-4-yl)ethynyl)pyridin-4-yl)piperidin-4-yl)methanol] | 1.3 | 0.9 | 1.4 | 2.8 | 3 | 22.3 | 4.4 | > 10000 | 8.2 | –
2 | Cn1cc(C#Cc2cnc(Nc3ccnc(-c4cnn(S(=O)(=O)C5CC5)c4)n3)cc2N2CC[C@@H](O)C2)cn1 [Example 31, (R)-1-(2-((2-(1-(Cyclopropylsulfonyl)-1H-pyrazol-4-yl)pyrimidin-4-yl)amino)-5-((1-methyl-1H-pyrazol-4-yl)ethynyl)pyridin-4-yl)pyrrolidin-3-ol] | 0.7 | – | 1.4 | 6.5 | – | 52.3 | – | > 10000 | – | –
3 | O=S(=O)(C1CC1)n1cc(-c2nccc(Nc3cc(N4CC[C@@H](O)C4)c(C#Cc4cnn(CCF)c4)cn3)n2)cn1 [Example 32, (R)-1-(2-((2-(1-(Cyclopropylsulfonyl)-1H-pyrazol-4-yl)pyrimidin-4-yl)amino)-5-((1-(2-fluoroethyl)-1H-pyrazol-4-yl)ethynyl)pyridin-4-yl)pyrrolidin-3-ol] | 1.1 | 1.5 | 4.8 | 11.8 | – | 96.9 | 12 | > 10000 | 29.4 | –
4 | Cn1cc(C#Cc2cnc(Nc3ccnc(-c4cnn(S(=O)(=O)C5CC5)c4)n3)cc2N2CCC(CO)C2)cn1 (stereo not shown) [Example 33, (1-(2-((2-(1-(Cyclopropylsulfonyl)-1H-pyrazol-4-yl)pyrimidin-4-yl)amino)-5-((1-methyl-1H-pyrazol-4-yl)ethynyl)pyridin-4-yl)pyrrolidin-3-yl)methanol] | 1.9 | – | 3.7 | 10.2 | – | 152 | – | > 10000 | – | –
5 | O=S(=O)(C1CC1)n1cc(-c2nccc(Nc3cc(N4CCC(CO)C4)c(C#Cc4cnn(CCF)c4)cn3)n2)cn1 (stereo not shown) [Example 34, (1-(2-((2-(1-(Cyclopropylsulfonyl)-1H-pyrazol-4-yl)pyrimidin-4-yl)amino)-5-((1-(2-fluoroethyl)-1H-pyrazol-4-yl)ethynyl)pyridin-4-yl)pyrrolidin-3-yl)methanol] | 1.8 | 2.1 | 6.8 | 11.5 | – | 236 | – | > 10000 | 27.9 | –
6 | Cn1cc(C#Cc2cnc(Nc3ccnc(-c4cnn(S(=O)(=O)C5CC5)c4)n3)cc2N2CC(C(C)(C)O)C2)cn1 [Example 35, 2-(1-(2-((2-(1-(Cyclopropylsulfonyl)-1H-pyrazol-4-yl)pyrimidin-4-yl)amino)-5-((1-methyl-1H-pyrazol-4-yl)ethynyl)pyridin-4-yl)azetidin-3-yl)propan-2-ol] | 1.9 | 0.9 | 2.4 | 27.3 | 28 | 53 | 34.2 | > 10000 | 99.6 | 2.4
7 | CC(C)(O)C1CN(c2cc(Nc3ccnc(-c4cnn(S(=O)(=O)C5CC5)c4)n3)ncc2C#Cc2cnn(CCF)c2)C1 [Example 36, 2-(1-(2-((2-(1-(Cyclopropylsulfonyl)-1H-pyrazol-4-yl)pyrimidin-4-yl)amino)-5-((1-(2-fluoroethyl)-1H-pyrazol-4-yl)ethynyl)pyridin-4-yl)azetidin-3-yl)propan-2-ol] | 2.1 | – | 3 | 25.5 | – | 100 | – | > 10000 | – | –
8 | Cn1cc(C#Cc2cnc(Nc3ccnc(-c4cnn(S(=O)(=O)C5CC5)c4)n3)cc2NCC(C)(C)CO)cn1 [Example 39, 3-((2-((2-(1-Cyclopropylsulfonylpyrazol-4-yl)pyrimidin-4-yl)amino)-5-(2-(1-methylpyrazol-4-yl)ethynyl)-4-pyridyl)amino)-2,2-dimethyl-propan-1-ol] | 2.6 | – | 8.8 | 53.6 | – | 203 | 32.3 | > 10000 | – | –
9 | CC(C)(CO)CNc1cc(Nc2ccnc(-c3cnn(S(=O)(=O)C4CC4)c3)n2)ncc1C#Cc1cnn(CCF)c1 [Example 40, 3-((2-((2-(1-Cyclopropylsulfonylpyrazol-4-yl)pyrimidin-4-yl)amino)-5-(2-(1-(2-fluoroethyl)pyrazol-4-yl)ethynyl)-4-pyridyl)amino)-2,2-dimethyl-propan-1-ol] | 4.8 | – | 13.1 | 49.1 | – | 278 | – | > 10000 | – | –
10 | Cn1cc(C#Cc2cnc(Nc3ccnc(-c4cnn(S(=O)(=O)C5CC5)c4)n3)cc2N[C@H]2CC[C@@H](O)CC2)cn1 [Example 41, (1s, 4s)-4-((2-((2-(1-(Cyclopropylsulfonyl)-1H-pyrazol-4-yl)pyrimidin-4-yl)amino)-5-((1-methyl-1H-pyrazol-4-yl)ethynyl)pyridin-4-yl)amino)cyclohexan-1-ol] | 0.6 | 0.5 | 0.8 | 2.8 | 1.3 | 10 | 1.5 | > 10000 | 23.8 | 0.2
11 | O=S(=O)(C1CC1)n1cc(-c2nccc(Nc3cc(N[C@H]4CC[C@@H](O)CC4)c(C#Cc4cnn(CCF)c4)cn3)n2)cn1 [Example 42, (1s,4s)-4-((2-((2-(1-(Cyclopropylsulfonyl)-1H-pyrazol-4-yl)pyrimidin-4-yl)amino)-5-((1-(2-fluoroethyl)-1H-pyrazol-4-yl)ethynyl)pyridin-4-yl)amino)cyclohexan-1-ol] | 1.1 | – | 1.2 | 3.2 | – | 11.5 | – | > 10000 | – | –
12 | Cn1cc(C#Cc2cnc(Nc3ccnc(-c4cnn(S(=O)(=O)C5CC5)c4)n3)cc2N[C@H]2CCC[C@H](O)C2)cn1 [Example 43, (1 S,3S)-3-((2-((2-(1-(Cyclopropylsulfonyl)-1H-pyrazol-4-yl)pyrimidin-4-yl)amino)-5-((1-methyl-1H-pyrazol-4-yl)ethynyl)pyridin-4-yl)amino)cyclohexan-1-ol] | 0.6 | 0.5 | 0.7 | 1.7 | 1.4 | 8.9 | 1.1 | > 10000 | 20.3 | 0.2
13 | O=S(=O)(C1CC1)n1cc(-c2nccc(Nc3cc(N[C@H]4CCC[C@H](O)C4)c(C#Cc4cnn(CCF)c4)cn3)n2)cn1 [Example 44, (1S,3S)-3-((2-((2-(1-(Cyclopropylsulfonyl)-1H-pyrazol-4-yl)pyrimidin-4-yl)amino)-5-((1-(2-fluoroethyl)-1H-pyrazol-4-yl)ethynyl)pyridin-4-yl)amino)cyclohexan-1-ol] | 1.2 | – | 1.4 | 2.6 | – | 12.7 | – | 2310 | – | –
14 | Cn1cc(C#Cc2cnc(Nc3ccnc(-c4cnn(S(=O)(=O)C5CC5)c4)n3)cc2N[C@@H]2CCC[C@H](O)C2)cn1 [Example 45, (1 S,3R)-3-((2-((2-(1-(Cyclopropylsulfonyl)-1H-pyrazol-4-yl)pyrimidin-4-yl)amino)-5-((1-methyl-1H-pyrazol-4-yl)ethynyl)pyridin-4-yl)amino)cyclohexan-1-ol] | 0.9 | – | 2.3 | 7.3 | – | 46.2 | – | > 10000 | – | –
15 | O=S(=O)(C1CC1)n1cc(-c2nccc(Nc3cc(N[C@@H]4CCC[C@H](O)C4)c(C#Cc4cnn(CCF)c4)cn3)n2)cn1 [Example 46, (1S,3R)-3-((2-((2-(1-(Cyclopropylsulfonyl)-1H-pyrazol-4-yl)pyrimidin-4-yl)amino)-5-((1-(2-fluoroethyl)-1H-pyrazol-4-yl)ethynyl)pyridin-4-yl)amino)cyclohexan-1-ol] | 1.3 | – | 2.9 | 8.6 | – | 59.3 | – | > 10000 | – | –

Source: US11981658B2, “Substituted aminopyridine compounds as EGFR inhibitors” (YUHAN CORPORATION, priority 2021, dated 2024)
